Measurements: ChEMBL document CHEMBL1201861, “Genomics of Drug Sensitity in Cancer screening data, Wellcome Trust Sanger Institute”

Experiments:
Assay in all cases: cells
Settings in all cases: Homo sapiens
LOX IMVI = format: functional, cell-based
KLE = format: functional, cell-based;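 note: growth inhibition of human KLE cells, read out with a cell viability assay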
TE-9 = format: functional, cell-based;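 note: cell growth inhibition, measured with a cell viability readout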
NCI-H23 = format: functional, cell-based;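 note: cell viability assay measuring growth inhibition of NCI-H23 cells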
NCI-H226 = format: functional, cell-based;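 note: cell viability read-out used to gauge growth inhibition of the cells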
CAS-1 = format: functional, cell-based;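 note: growth inhibition of CAS-1 cells, measured with a cell viability assay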
NEC8 = format: functional, cell-based;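 note: growth inhibition of human NEC8 cells, read out by a cell viability assay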
KALS-1 = format: functional, cell-based;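 note: growth inhibition of KALS-1 cells, determined with a cell viability assay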
MZ1-PC = format: functional, cell-based;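 note: cell viability assay measuring growth inhibition of human MZ1-PC cells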
TE-11 = format: functional, cell-based;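 note: growth inhibition of human TE-11 cells, read out by a cell viability assay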
SNU1 = format: functional, cell-based;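 note: growth inhibition of human NCI-SNU-1 cells, measured with a cell viability assay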
8-MG-BA = format: functional, cell-based;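 note: growth inhibition of 8-MG-BA cells, read out with a cell viability assay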
TK-10 = format: functional, cell-based;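 note: growth inhibition of TK-10 cells, read out in a cell viability assay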
NCI-H1648 = format: functional, cell-based;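 note: cell viability assay measuring inhibition of NCI-H1648 cell growth, from the Sanger screening data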
MN-60 = format: functional, cell-based;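 note: growth inhibition of the MN-60 cell line, determined with a cell viability assay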
NCI-H510A = format: functional, cell-based;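 note: growth inhibition of NCI-H510A cells, read out with a cell viability assay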
CTV-1 = format: functional, cell-based;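 note: growth inhibition of the cell line, read out with a cell viability assay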
KU812 cell line = format: functional, cell-based;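 note: growth inhibition of KU812 cells, read out with a cell viability assay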
GI-ME-N = format: functional, cell-based;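 note: growth inhibition of human GI-ME-N cells, read out with a cell viability assay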
U-266 = format: functional, cell-based
CGTH-W-1 = format: functional, cell-based;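 note: growth inhibition of human CGTH-W-1 cells measured by cell viability assay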
ALL-PO = format: functional, cell-based;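 note: growth inhibition of ALL-PO cells, read out by a cell viability assay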
UACC-257 = format: functional, cell-based
NOS-1 = format: functional, cell-based;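 note: growth inhibition of the human NOS-1 cell line, read out with a cell viability assay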
HEL = format: functional, cell-based;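 note: growth inhibition of HEL cells, read out with a cell viability assay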
LC-2-ad = format: functional, cell-based;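 note: growth inhibition of human LC-2-ad cells, read out with a cell viability assay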
NB5 = format: functional, cell-based;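 note: growth inhibition of NB5 cells, read out as cell viability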
SW684 = format: functional, cell-based;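 note: growth inhibition of human SW684 cells, measured by a cell viability assay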
LU-139 = format: functional, cell-based
COLO-824 = format: functional, cell-based
HH = format: functional, cell-based
OCUB-M = format: functional, cell-based;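 note: growth inhibition of the cancer cell line, read out through a cell viability assay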
KP-N-YS = format: functional, cell-based;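 note: cell viability assay measuring inhibition of cell line growth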
NH-12 = format: functional, cell-based;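 note: growth inhibition of NH-12 cells, read out with a cell viability assay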
KNS-42 = format: functional, cell-based;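 note: growth inhibition of KNS-42 cells, read out with a cell viability assay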
DB = format: functional, cell-based
MEG-01 = format: functional, cell-based;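 note: growth inhibition of MEG-01 cells, read out by a cell viability assay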
NCI-H1770 = format: functional, cell-based;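 note: growth inhibition of NCI-H1770 cells determined with a viability readout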
MPP-89 = format: functional, cell-based;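 note: growth inhibition of human MPP-89 cells, read out with a cell viability assay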
SW982 = format: functional, cell-based;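 note: growth inhibition of SW982 cells, read out with a cell viability assay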
DMS-79 = format: functional, cell-based;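 note: growth inhibition measured with a cell viability assay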
SNB-75 = format: functional, cell-based;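 note: cell viability assay measuring growth inhibition of human SNB-75 cells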
COLO-684 = format: functional, cell-based
Mo = format: functional, cell-based
MS-1 = format: functional, cell-based;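 note: growth inhibition of MS-1 cells, read out by cell viability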
D283 Med = format: functional, cell-based
AM-38 = format: functional, cell-based;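 note: growth inhibition of AM-38 cells of human origin, read out by a cell viability assay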
Lu-65 = format: functional, cell-based;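 note: growth inhibition of Lu-65 cancer cells, read out by a cell viability assay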
MFM-223 = format: functional, cell-based
GAK = format: functional, cell-based
KURAMOCHI = format: functional, cell-based;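 note: growth inhibition of KURAMOCHI cells, read out with a cell viability assay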
no-11 = format: functional, cell-based;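 note: growth inhibition of human NO-11 cells, read out with a cell viability assay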
MSTO-211H = format: functional, cell-based
U-87 MG = format: functional, cell-based, U-87MG ATCC;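 note: growth inhibition of the cells measured with a viability assay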
SCC-15 = format: functional, cell-based;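 note: growth inhibition of SCC-15 cells, read out with a cell viability assay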
NB10 = format: functional, cell-based;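 note: growth inhibition of NB10 cells, read out by a cell viability assay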
CP66-MEL = format: functional, cell-based;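 note: growth inhibition of CP66-MEL cells determined in a cell viability assay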
TE-12 = format: functional, cell-based;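 note: growth inhibition of TE-12 cells, read out by a cell viability assay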
DEL = format: functional, cell-based;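 note: growth inhibition of the human DEL cell line, read out with a cell viability assay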
NTERA-2-cl-D1 = format: functional, cell-based;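 note: inhibition of cell growth, measured with a cell viability assay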
RH-1 = format: functional, cell-based;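 note: growth inhibition of human RH-1 cells, read out with a cell viability assay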
TE-1 = format: functional, cell-based
KINGS-1 = format: functional, cell-based;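 note: cell viability assay measuring suppression of KINGS-1 cell growth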
CW-2 = format: functional, cell-based;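 note: growth inhibition of CW-2 cells, read out by a cell viability assay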
SW 954 = format: functional, cell-based;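 note: growth inhibition of SW954 human cancer cells, read out as cell viability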
NCI-H1092 = format: functional, cell-based

C[C@]12O[C@H](C[C@]1(O)CO)n1c3ccccc3c3c4c(c5c6ccccc6n2c5c31)CNC4=O [LESTAURTINIB]
IC50 (LOX IMVI): 298 nM
IC50 (KLE): > 2000 nM
IC50 (TE-9): 415 nM
IC50 (NCI-H23): 1690 nM
IC50 (NCI-H226): > 2000 nM
IC50 (CAS-1): > 2000 nM
IC50 (NEC8): 268 nM
IC50 (KALS-1): 689 nM
IC50 (MZ1-PC): > 2000 nM
IC50 (TE-11): 609 nM
IC50 (SNU1): 183 nM
IC50 (8-MG-BA): 124 nM
IC50 (TK-10): 251 nM
IC50 (NCI-H1648): > 2000 nM
IC50 (MN-60): 372 nM
IC50 (NCI-H510A): 513 nM
IC50 (CTV-1): 189 nM
IC50 (KU812 cell line): 1010 nM
IC50 (GI-ME-N): 174 nM
IC50 (U-266): 145 nM
IC50 (CGTH-W-1): 43.6 nM
IC50 (ALL-PO): 172 nM
IC50 (UACC-257): 532 nM
IC50 (NOS-1): 949 nM
IC50 (HEL): 204 nM
IC50 (LC-2-ad): 257 nM
IC50 (NB5): 471 nM
IC50 (SW684): 1920 nM
IC50 (LU-139): > 2000 nM
IC50 (COLO-824): > 2000 nM
IC50 (HH): 506 nM
IC50 (OCUB-M): > 2000 nM
IC50 (KP-N-YS): 713 nM
IC50 (NH-12): 199 nM
IC50 (KNS-42): > 2000 nM
IC50 (DB): 802 nM
IC50 (MEG-01): 456 nM
IC50 (NCI-H1770): > 2000 nM
IC50 (MPP-89): 1040 nM
IC50 (SW982): 42.5 nM
IC50 (DMS-79): > 2000 nM
IC50 (SNB-75): 1490 nM
IC50 (COLO-684): 853 nM
IC50 (Mo): > 2000 nM
IC50 (MS-1): > 2000 nM
IC50 (D283 Med): 132 nM
IC50 (AM-38): > 2000 nM
IC50 (Lu-65): > 2000 nM
IC50 (MFM-223): 333 nM
IC50 (KURAMOCHI): > 2000 nM
IC50 (no-11): > 2000 nM
IC50 (MSTO-211H): 439 nM
IC50 (U-87 MG): > 2000 nM
IC50 (SCC-15): > 2000 nM
IC50 (NB10): 338 nM
IC50 (CP66-MEL): > 2000 nM
IC50 (TE-12): > 2000 nM
IC50 (DEL): 47.3 nM
IC50 (NTERA-2-cl-D1): 363 nM
IC50 (RH-1): 149 nM
IC50 (TE-1): 553 nM
IC50 (KINGS-1): 547 nM
IC50 (CW-2): > 2000 nM
IC50 (SW 954): 291 nM
IC50 (NCI-H1092): > 2000 nM

CCNC(=O)c1noc(-c2cc(C(C)C)c(O)cc2O)c1-c1ccc(CN2CCOCC2)cc1 [LUMINESPIB]
IC50 (LOX IMVI): 23.2 nM
IC50 (KLE): 162 nM
IC50 (TE-9): 42.4 nM
IC50 (NCI-H23): 241 nM
IC50 (NCI-H226): 59.9 nM
IC50 (CAS-1): 120 nM
IC50 (NEC8): > 256 nM
IC50 (KALS-1): 14.7 nM
IC50 (MZ1-PC): 26.4 nM
IC50 (TE-11): 200 nM
IC50 (SNU1): 78.9 nM
IC50 (8-MG-BA): 18.8 nM
IC50 (TK-10): 13.8 nM
IC50 (NCI-H1648): 15 nM
IC50 (MN-60): 242 nM
IC50 (NCI-H510A): > 256 nM
IC50 (CTV-1): 41.2 nM
IC50 (KU812 cell line): 36.8 nM
IC50 (GI-ME-N): 74.3 nM
IC50 (U-266): 145 nM
IC50 (CGTH-W-1): 23.3 nM
IC50 (ALL-PO): 17.3 nM
IC50 (UACC-257): 75.1 nM
IC50 (NOS-1): 15.9 nM
IC50 (HEL): 38.9 nM
IC50 (LC-2-ad): 13.7 nM
IC50 (NB5): 36.1 nM
IC50 (SW684): > 256 nM
IC50 (LU-139): > 256 nM
IC50 (COLO-824): 110 nM
IC50 (HH): 142 nM
IC50 (OCUB-M): 39.6 nM
IC50 (KP-N-YS): 83.5 nM
IC50 (NH-12): 44.4 nM
IC50 (KNS-42): > 256 nM
IC50 (DB): 229 nM
IC50 (MEG-01): 173 nM
IC50 (NCI-H1770): 58.8 nM
IC50 (MPP-89): 97.2 nM
IC50 (SW982): 12.9 nM
IC50 (DMS-79): > 256 nM
IC50 (SNB-75): 24.7 nM
IC50 (COLO-684): 81.6 nM
IC50 (Mo): > 256 nM
IC50 (MS-1): 186 nM
IC50 (D283 Med): > 256 nM
IC50 (Lu-65): 202 nM
IC50 (MFM-223): > 256 nM
IC50 (GAK): 57.3 nM
IC50 (KURAMOCHI): 61.9 nM
IC50 (no-11): 30.5 nM
IC50 (MSTO-211H): > 256 nM
IC50 (U-87 MG): 32.9 nM
IC50 (SCC-15): 28 nM
IC50 (NB10): 237 nM
IC50 (CP66-MEL): 78.9 nM
IC50 (TE-12): 17.8 nM
IC50 (DEL): 112 nM
IC50 (NTERA-2-cl-D1): 13.4 nM
IC50 (RH-1): 62.3 nM
IC50 (TE-1): 15.8 nM
IC50 (KINGS-1): 24.3 nM
IC50 (CW-2): > 256 nM
IC50 (SW 954): 10.7 nM
IC50 (NCI-H1092): 141 nM
